These results are taken from patent US20170072012A1, “USE OF GSMTX4 TO REDUCE ISCHEMIA REPERFUSION INJURY” (priority 2014, published 2017).

Series [1] is described as follows: Single-dose pharmacokinetic study, plasma and heart concentration by LC/MS/MS. To be noted: for Tmax: female, CD-1, mouse, plasma and heart. It is filed as in vivo, CD-1 mice. As to the method: For single-dose pharmacokinetic studies, 7-9 week old female CD-1 mice were obtained from Charles River Laboratories, Inc. by Covance Laboratories Inc., Greenfield, Ind., USA. For subcutaneous injection, GsMTx4-D was dissolved at a concentration of 7.5 mg/ml in phosphate buffered saline pH 7.4 and injected subcutaneously into the back of mice at a net dose of 50 mg/kg. For intravenous (IV) administration into the tail vein, 1.5 mg/ml GsMTx4-D was used to achieve a dose of 5 mg/kg. Animals were sacrificed at 5, 15, 30, 60, 120, 480, 960 and 1920 min after injection, and blood and heart tissue samples were harvested. Animals were checked for death or morbidity during the whole trial. At the conclusion of each trial period, mice were euthanized by CO2 inhalation for 10 min. Blood samples were treated with sodium heparin and centrifuged to obtain plasma. There were cohorts of 3 mice per time point, and tissue samples from the 3 animals were combined from each time point to create average samples. Samples were sent to Custom Biologics, Mississauga, ON, Canada to measure the amount of GsMTx4 by liquid chromatography tandem mass spectrometry (LC/MS/MS) in the tissue samples. A reference standard was included in each sample consisting of a functional mutant of GsMTx4-D (F34A). All procedures in this protocol are in compliance with the U.S. Department of Agriculture's (USDA) Animal Welfare Act (9 CFR Parts 1, 2, and 3); the Guide for the Care and Use of Laboratory Animals: Eighth Edition, (Institute for Laboratory Animal Research, The National Academies Press, Washington, D.C., 2010); and the National Institutes of Health, Office of Laboratory Animal Welfare. Whenever possible, procedures in this study were designed to avoid or minimize discomfort, distress, and pain to animals. For ischemic reperfusion (I/R) testing, we used male C57B1/6J mice (4-6 months of age) obtained from Jackson Laboratories (Bar Harbor, […].). All animal protocols in this study were approved by the Institutional Animal Care and Use Committee of the University at Buffalo-State University of New York.
To provide a frame of reference for concentration and timing, we compared IV (fast absorption) to subcutaneous (slow absorption) administration and determined the distribution of the peptide in the heart and plasma over 24 hrs using LC/MS/MS (FIG. 1). Mice were sacrificed at different times after injection and the plasma (FIG. 1A) and heart (FIG. 1B) concentrations sampled. […] The samples from the 3 mouse cohorts at each time point were mixed and averaged. […] IV injection of 5 mg/kg GsMTx4-D produced an early spike in plasma concentration ([…] at 5 min) that decayed within 30 min. […] We used 1-5 μM ([…] is 1 μM) as our target concentration for treatment. IV injection of 5 mg/kg GsMTx4-D produced plasma concentrations within 5 minutes that were substantially above the target concentration while whole heart concentrations were somewhat lower than this range. Other ranges may be used for treatment, such as about 1.5-4.5 μM, about 2-4 μM, about 2.5-3.5 μM, about 1-4 μM, about 1-3 μM and about 1-2 μM. The whole heart concentration was lower than the target range within 5 minutes of IV injection, but the net plasma concentrations were acceptable.
Based on the slower distribution by subcutaneous administration, we injected 10 times the concentration of GsMTx4-D as that used in IV injection. The concentrations increased more slowly in both plasma and heart, peaking in ˜2 hrs, although we could reliably detect it in both tissues within 5 minutes. […] Without being bound by any theory, we believe that this is likely due to deeper infiltration into the tissue, and possibly higher affinity associations.

Series [2] relates to I/R induced arrhythmias in mouse heart. Description: Heart rhythm analysis (ECG) during reperfusion, I/R induced arrhythmia. The format is in vivo, C57B1/6J mice. To be noted: for total incidence of arrhythmias (ventricular and supraventricular premature beats): vehicle 14.9±4.5; for mean heart rate during the 15 min of reperfusion: vehicle 162.9±13.2. The protocol:
During reperfusion we continuously recorded ECGs, from which mean heart rate, PR, QRS, and QT intervals were derived for each animal. We evaluated the incidence of arrhythmias by counting the incidences of arrhythmias including ventricular and supraventricular premature beats by summing the number of episodes based on limb lead recordings for 15 min after reperfusion. Ventricular premature beats are considered more severe. Each group contained 5 to 7 independent experiments (vehicle n=7, verapamil n=6, GsMTx4-D 0.1mg/kg n=5, 1 mg/kg n=6 and 10 mg/kg n=5).
Heart rate and rhythm were monitored by ECG to confirm the hallmark ischemic ST-segment elevation during coronary occlusion, and the gradually increasing inversion of the T-wave during reperfusion (FIG. 4A). Since generation of arrhythmias is a good indicator of the level of I/R damage, we counted ventricular and supraventricular premature beats occurring within 15 min of reperfusion (FIG. 4B). No ventricular tachycardia was observed during 20 min ischemia and 15 min reperfusion in the mouse heart. […] Considering that ventricular premature beats are indicative of more severe damage, the incidence of this specific arrhythmia was analyzed separately (FIG. 4 D). […] There was no difference in mean heart rate before ischemia (FIG. 4E). […] There was no difference in PR, QRS or QT intervals after treatment in all groups (data not shown).

A short description of series [3]: Single-dose pharmacokinetic study, plasma and heart concentration by LC/MS/MS. The format is in vivo, CD-1 mice. To be noted: based on the PK analysis.
The mark [4] stands for this setting: subcutaneous injection 50 mg/kg.

The structures appear in SMILES notation. Where two headings read alike, the source gives them in different places. Where a SMILES comes first, the peptide text is derived from it. Bridges are numbered along the chain shown (N, C = ends). [ ]: non-standard residue; d: D form.

As to `CC(C)C[C@H]1NC(=O)[C@H](NC(=O)CN)CSSC[C@H]2NC(=O)[C@H]3CSSC[C@H](C(=O)N[C@H](CC(N)=O)C(=O)N[C@H](Cc4ccccc4)C(=O)N[C@H](CO)C(=O)N[C@H](Cc4ccccc4)C(N)=O)NC(=O)[C@@H](CC(C)C)NC(=O)[C@@H](CCCCN)NC(=O)[C@@H](Cc4ccccc4)NC(=O)[C@@H](CC(C)C)NC(=O)[C@@H](CCCCN)NC(=O)[C@@H](CO)NC(=O)[C@@H](CSSC[C@@H](NC(=O)[C@@H](CCCCN)NC(=O)[C@@H](Cc4c[nH]c5ccccc45)NC(=O)[C@@H](Cc4c[nH]c5ccccc45)NC(=O)[C@@H](Cc4ccccc4)NC(=O)[C@@H](CCC(=O)O)NC1=O)C(=O)N[C@H](CC(N)=O)C(=O)N1CCC[C@@H]1C(=O)N[C@H](CC(N)=O)C(=O)N[C@H](CC(=O)O)C(=O)N[C@H](CC(=O)O)C(=O)N[C@H](CCCCN)C(=O)N3)NC(=O)[C@@H](CCCCN)NC(=O)[C@@H](CC(C)C)NC(=O)[C@@H](CCCCN)NC(=O)[C@H]1CCCN1C(=O)[C@@H](CCCNC(=N)N)NC2=O` [GsMTx4-D] (H-G[dC][dL][dE][dF][dW][dW][dK][dC][dN][dP][dN][dD][dD][dK][dC][dC][dR][dP][dK][dL][dK][dC][dS][dK][dL][dF][dK][dL][dC][dN][dF][dS][dF]-NH2; disulfide 2-17, 9-23, 16-30 (inferred); N-terminus and C-terminus assumed), in series [1] (IV 5 mg/kg or subcutaneous 50 mg/kg), the “death or abnormal behavior during PK study” value was “No mice died during the study, nor did any show abnormal behavior”. For the same compound, in series [1] (IV injection of 5 mg/kg), the “time within which plasma concentration spike decayed” value is listed as at most 30 min. For the same compound, the Tmax was below 0.0833 h in series [1] (5 mg/kg, after IV injection, read-out: time of concentration spike in plasma and heart); around 2 h in series [1] (sc, subcutaneous injection 50 mg/kg, read-out: time of peak concentration in plasma and heart). In addition, the half-life – broadly, the time needed for the level to fall by half in the phase considered – in series [1] (mouse, in vivo, D form) was above 24 h. The “heart concentration twenty four hours after injection” value in series [1] (single 50 mg/kg subcutaneous injection, target range 1-5 μM) is listed as “near the target range”. Further, the “plasma concentration by 24 hrs” value in series [1] (setting [4]) is “nearly undetectable”. For the same compound, the “time of peak concentration in plasma and heart” value in series [1] (setting [4]) was around 2 h. Moreover, the “total incidence of arrhythmias (ventricular and supraventricular premature beats)” value in series [2] (0.1 mg/kg IV 5 min before reperfusion, not significantly different) is 10.4±6 incidence/15 min reperfusion; in series [2] (1 mg/kg IV 5 min before reperfusion), 2.3±0.7 incidence/15 min reperfusion; in series [2] (10 mg/kg IV 5 min before reperfusion) it was 2.2±1.0 incidence/15 min reperfusion. The “mean heart rate during the 15 min of reperfusion” value is listed as 255.7±33.4 in series [2] (1 mg/kg IV) and 286.1±25.0 in series [2] (10 mg/kg IV). Also, the ventricular premature beats in series [2] (1 mg/kg IV, within 15 min of reperfusion, vehicle 5.7±1.8) is reported as 1.3±0.4. Moreover, the figures for the “predicted concentration in the heart at the time of reperfusion” value in series [3] (after the 1 mg/kg IV injection during ischemia) and in series [3] (after two IP pretreatments (50 mg/kg)) were below 0.5 µM and 1 to 2 µM, respectively.
